Literature values as cited in patent US20110201579A1, “Method of Improving the Overall Health of a Patient by Application of Pregnenolone” (priority 2010, published 2011).

How the values were obtained:
[1] = individuals with rheumatoid arthritis
[2] = rodents
[3] = some people

Row | Structure (SMILES) | improvement of rheumatoid arthritis [1] | memory [2] | energy, vision, memory, clarity of thinking, wellbeing, sexual enjoyment or libido [3]
1 | C[C@]12CCC(=O)C=C1CC[C@@H]1[C@@H]2[C@@H](O)C[C@@]2(C)[C@H]1CC[C@]2(O)C(=O)CO [cortisol] | outstanding short-term improvements |  | 
2 | CC(=O)[C@H]1CC[C@H]2[C@@H]3CC=C4C[C@@H](O)CC[C@]4(C)[C@H]3CC[C@]12C [pregnenolone, Pregnenolone] |  | one of the most effective and powerful memory boosters | improves energy, vision, memory, clarity of thinking, wellbeing, and often sexual enjoyment or libido
